In the supplement of paper PMC10307832 one finds relative viability data, which are given here for five cell lines.

Experiment in all cases: relative viability (nuclei count vs DMSO), 5 days (fraction); higher = more cells survive
Compound in the experiment “Cediranib + Palbociclib”: COc1cc2c(Oc3ccc4[nH]c(C)cc4c3F)ncnc2cc1OCCCN1CCCC1 [Cediranib] + CC(=O)c1c(C)c2cnc(Nc3ccc(N4CCNCC4)cn3)nc2n(C2CCCC2)c1=O [Palbociclib] (partner 0.5 µM)
In a few lines: (§1)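 Medians of duplicate plates are given as relative viability. That measure is the nuclei count in treated wells divided by the count in vehicle wells. Counts were taken on 4× images of lung cancer cell lines in 1536-well plates, 5 days after pin-tool dosing the day after seeding with one drug alone or a fixed anchor-drug dose plus five library-drug doses (not always all listed) in √10 steps.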

Compound in the experiment “Cediranib + Luminespib”: COc1cc2c(Oc3ccc4[nH]c(C)cc4c3F)ncnc2cc1OCCCN1CCCC1 [Cediranib] + CCNC(=O)c1noc(-c2cc(C(C)C)c(O)cc2O)c1-c1ccc(CN2CCOCC2)cc1 [Luminespib] (partner 0.01 µM)
In a few lines:
as §1

Compound in the experiment “Decitabine + Dasatinib”: Nc1ncn([C@H]2C[C@H](O)[C@@H](CO)O2)c(=O)n1 [Decitabine] + Cc1nc(Nc2ncc(C(=O)Nc3c(C)cccc3Cl)s2)cc(N2CCN(CCO)CC2)n1 [Dasatinib] (partner 0.075 µM)
In a few lines:
as §1

Compound in experiment [1]: O=C(C[C@H]1NCCC[C@@H]1O)Cn1cnc2cc(Br)c(Cl)cc2c1=O (racemic) [Halofuginone] + Nc1nc2[nH]cc(CCc3ccc(C(=O)N[C@@H](CCC(=O)O)C(=O)O)cc3)c2c(=O)[nH]1 [Pemetrexed] (partner 0.2 µM)
In a few lines: as §1

Take 201T: the relative viability with Cediranib + Palbociclib (first compound 0.04 µM) came to 0.368; with Cediranib + Palbociclib (first compound 0.1265 µM), 0.429; with Cediranib + Palbociclib (first compound 0.4 µM), 0.352; with Cediranib + Palbociclib (first compound 1.265 µM), 0.372; with Cediranib + Palbociclib (first compound 4 µM), 0.341; with Cediranib + Luminespib (first compound 0.04 µM) it was 1.2. Further, the relative viability with Cediranib + Luminespib (first compound 0.1265 µM) turned out to be 1.34; with Cediranib + Luminespib (first compound 0.4 µM) it was 1; with Cediranib + Luminespib (first compound 1.265 µM) it was 1.03; in the experiment with Cediranib + Luminespib (first compound 4 µM) it was 1.03; in the experiment with Decitabine + Dasatinib (first compound 0.04 µM) it was 0.567; with Decitabine + Dasatinib (first compound 0.1265 µM) it was 0.595. Moreover, the relative viability with Decitabine + Dasatinib (first compound 0.4 µM) was found to be 0.578; with Decitabine + Dasatinib (first compound 4 µM), 0.517; in experiment [1] (first compound 0.001 µM), 0.31; in experiment [1] (first compound 0.003162 µM) it was 0.329; in experiment [1] (first compound 0.01 µM), 0.346; in experiment [1] (first compound 0.03162 µM), 0.311. Further, in experiment [1] (first compound 0.1 µM), the relative viability turned out to be 0.313.
A-427: the relative viability is 0.524 with Cediranib + Palbociclib (first compound 0.04 µM); 0.481 with Cediranib + Palbociclib (first compound 0.4 µM); 0.458 with Cediranib + Palbociclib (first compound 1.265 µM); 0.502 with Cediranib + Palbociclib (first compound 4 µM); 1.25 with Cediranib + Luminespib (first compound 0.04 µM); 0.84 with Cediranib + Luminespib (first compound 0.4 µM). The relative viability with Cediranib + Luminespib (first compound 1.265 µM) is 0.906; with Cediranib + Luminespib (first compound 4 µM), 0.928; with Decitabine + Dasatinib (first compound 0.04 µM), 0.51; with Decitabine + Dasatinib (first compound 0.1265 µM), 0.341; in the experiment with Decitabine + Dasatinib (first compound 0.4 µM), 0.214; in the experiment with Decitabine + Dasatinib (first compound 1.265 µM) it was 0.196. The relative viability in the experiment with Decitabine + Dasatinib (first compound 4 µM) came to 0.206; in experiment [1] (first compound 0.001 µM) it was 1; in experiment [1] (first compound 0.003162 µM), 1.03; in experiment [1] (first compound 0.01 µM), 0.945; in experiment [1] (first compound 0.03162 µM) it was 0.946; in experiment [1] (first compound 0.1 µM) it was 0.887.
In the case of ABC-1, the relative viability with Cediranib + Palbociclib (first compound 0.04 µM) was determined as 0.766; with Cediranib + Palbociclib (first compound 0.1265 µM), 1.04; with Cediranib + Palbociclib (first compound 0.4 µM), 0.538; in the experiment with Cediranib + Palbociclib (first compound 1.265 µM) it was 0.853; with Cediranib + Palbociclib (first compound 4 µM), 0.426; with Cediranib + Luminespib (first compound 0.04 µM), 0.885. The relative viability with Cediranib + Luminespib (first compound 0.1265 µM) was 0.714; with Cediranib + Luminespib (first compound 1.265 µM) it was 0.44; with Cediranib + Luminespib (first compound 4 µM), 0.486; in the experiment with Decitabine + Dasatinib (first compound 0.04 µM), 0.451; in the experiment with Decitabine + Dasatinib (first compound 0.1265 µM) it was 0.553; with Decitabine + Dasatinib (first compound 0.4 µM), 0.588. The results for the relative viability with Decitabine + Dasatinib (first compound 1.265 µM) and with Decitabine + Dasatinib (first compound 4 µM) were 0.416 and 0.421, respectively.
In the case of BEN, the relative viability with Cediranib + Palbociclib (first compound 0.04 µM) came out at 0.437; with Cediranib + Palbociclib (first compound 0.1265 µM), 0.412; in the experiment with Cediranib + Palbociclib (first compound 0.4 µM) it was 0.489; with Cediranib + Palbociclib (first compound 1.265 µM), 0.451; in the experiment with Cediranib + Palbociclib (first compound 4 µM) it was 0.47; in the experiment with Cediranib + Luminespib (first compound 0.04 µM), 0.379. Further, the relative viability turned out to be 0.338 with Cediranib + Luminespib (first compound 0.4 µM); 0.201 with Cediranib + Luminespib (first compound 1.265 µM); 0.381 in the experiment with Cediranib + Luminespib (first compound 4 µM); 0.373 with Decitabine + Dasatinib (first compound 0.04 µM); 0.406 in the experiment with Decitabine + Dasatinib (first compound 0.1265 µM); 0.225 with Decitabine + Dasatinib (first compound 0.4 µM). For the same cell line, the relative viability with Decitabine + Dasatinib (first compound 1.265 µM) turned out to be 0.251; with Decitabine + Dasatinib (first compound 4 µM) it was 0.218; in experiment [1] (first compound 0.001 µM), 0.871; in experiment [1] (first compound 0.003162 µM) it was 0.618; in experiment [1] (first compound 0.01 µM), 0.788; in experiment [1] (first compound 0.03162 µM), 0.647. Moreover, in experiment [1] (first compound 0.1 µM), the relative viability is 0.551.
With CAL-12T, the relative viability turned out to be 0.535 in the experiment with Cediranib + Palbociclib (first compound 0.04 µM); 0.408 with Cediranib + Palbociclib (first compound 0.1265 µM); 0.411 with Cediranib + Palbociclib (first compound 0.4 µM); 0.466 in the experiment with Cediranib + Palbociclib (first compound 1.265 µM); 0.666 with Cediranib + Palbociclib (first compound 4 µM); 0.242 in the experiment with Cediranib + Luminespib (first compound 0.04 µM). The relative viability with Cediranib + Luminespib (first compound 0.1265 µM) turned out to be 0.369; with Cediranib + Luminespib (first compound 0.4 µM), 0.364; with Cediranib + Luminespib (first compound 1.265 µM) it was 0.359; with Cediranib + Luminespib (first compound 4 µM), 0.361; with Decitabine + Dasatinib (first compound 0.04 µM), 0.356; in the experiment with Decitabine + Dasatinib (first compound 0.1265 µM) it was 0.477. The relative viability with Decitabine + Dasatinib (first compound 1.265 µM) came out at 0.212; in the experiment with Decitabine + Dasatinib (first compound 4 µM) it was 0.235; in experiment [1] (first compound 0.001 µM) it was 1.17; in experiment [1] (first compound 0.003162 µM), 1.08; in experiment [1] (first compound 0.01 µM) it was 1.3; in experiment [1] (first compound 0.03162 µM), 0.953. Moreover, the relative viability in experiment [1] (first compound 0.1 µM) was 0.72.
